Measurements: PMC12186697, “HypoxyStat, a small-molecule form of hypoxia therapy that increases oxygen-hemoglobin affinity” (Cell, 2025)

Legend:
Hb = Hb occupancy estimate from blood levels of compound and Hb; assay type: in vivo; conditions: day 12, C57BL/6 mice
Method: (§1) We conducted a PK/PD study to determine the optimal dosing strategy for HypoxyStat in a chronic setting. First we administered a single 10 mg/kg oral dose of HypoxyStat to adult C57BL/6 mice and monitored its concentration in blood and plasma over a 10-day period (Figure 3A, left). Next, we administered HypoxyStat at doses of 20, 60, 200, and 600 mg/kg via oral gavage three times per week for 12 days. […] Based on blood levels of HypoxyStat and Hb measured on day 12, we estimated Hb occupancy to be 29.3% at 200 mg/kg and 41.4% at 600 mg/kg (Figure S1).[27]
Figure S1. Hemoglobin occupancy estimates, related to Figure 1
LC/MS/MS measurement of steady-state whole-blood HypoxyStat concentrations after day 12 administration in C57BL/6 mice (200 or 600 mg/kg PO, […]
week in 0.5% HPMC), N = 10 per group.
(A) Oral administration of HypoxyStat every other day (vehicle = 0.5% HPMC).
(B) LC/MS/MS measurement of steady-state mean whole-blood HypoxyStat concentrations after day 12 administration in C57BL/6 mice.
(C) Hb concentration after analogous treatment.
(D) Hb occupancy was calculated by dividing the HypoxyStat concentration in blood by the Hb concentration in blood on day 12.

[1] = Safety studies in mice at optimized dose; assay type: in vivo; conditions: optimized dose (400 mg/kg daily)
Method: Additionally, we used the Reaction Bio InVEST panel to test 25+ potential off-targets that have been identified by a consortium of pharmaceutical companies as high-yield candidates.
Hematocrit was determined with an iStat VetScan 1 with Zoetis Chem 8+ cartridges. Blood glucose measurements were performed using OneTouch UltraPlus glucometer. Whole blood chemistry measurements were performed on a VetScan HM5.

[2] = Mouse oral pharmacokinetics (blood and plasma, LC-MS/MS); assay type: in vivo, C57BL/6 mice
Method: as §1
Mouse plasma and whole blood samples were processed as outlined below. An equal volume of 3% aqueous formic acid in water was added to whole blood and plasma samples which were then vortexed at 600 rpm for 60 minutes at room temperature. Internal standard solution (acetonitrile containing 200 nM chrysin) was then added to the samples. They were then vortexed and centrifuged for 5 minutes at 4100 rpm and 4°C. Diluted extracts were injected into a Sciex 5500 LC-MS/MS system operated in positive mode for analysis. A Waters Acquity BEH C18 (50 x 2 mm, […]) UPLC column was used with Mobile Phases A (water:acetonitrile:formic acid [95:5:0.1, v:v:v]) and B (methanol:acetonitrile:formic acid [50:50:0.1, v:v:v]) to separate analytes. Multiple reaction monitoring transitions of 368/230 and 255/153 were used for HypoxyStat and chrysin, respectively.

Ndufs4 KO mouse = Ndufs4 KO mouse model of Leigh syndrome (survival, body weight, temperature, behavior, neuropathology); assay type: in vivo
From the text: We continuously bred Ndufs4 Het x Het mice to generate KO and controls for our experiments. Ndufs4+/− and WT mice were used as controls as they are identical in all previously reported assays. Ndufs4 mice were obtained directly from Jackson labs (#027058). Pups were weaned and genotyped at ~21 d after birth. The age of mice at the time of experiments is described throughout the text. Male and female mice were used throughout studies. All cages were provided with food and water, with hydrated gel provided to newly weaned cages. Body weights were recorded at every dosing. Mice were euthanized according to guidelines at 20% drop in peak body weight. All animal studies were approved by the Institutional Animal Care & Use Committee (IACUC) Program at UCSF/Gladstone.
Mice were administered HypoxyStat at 600 mg/kg every other day or 400mg/kg daily via oral gavage. For the disease prevention experiments, KO mice that underwent daily dosing were dosed starting ~P30 for 1 week of 200mg/kg daily, followed by 400mg/kg daily to allow for gradual dose escalation. For the reversal study, KO mice were dosed once with 200mg/kg on postnatal day ~P55, followed by 400mg/kg daily. HypoxyStat was formulated as a suspension at 60 mg/mL, 40mg/ml or 80mg/ml depending on dose in 0.5%HPMC and stored at 4 °C. The formulation was determined to be stable for at least 8 weeks. Animal body weight was taken at time of dosing to determine appropriate dosing volume (10 mL/kg for every other day dosing, 5ml/kg for daily dosing). Vehicle treated mice were administered the same volume of 0.5% HPMC.
Mice were euthanized via CO2 inhalation. To perfuse the whole body, the right atrium was nicked and a needle was inserted into the left ventricle. Ice-cold PBS was slowly injected first, followed immediately by 4% PFA solution. The brain was removed, stored in 4% PFA for 24–48 h, and then washed with PBS for 5 min (3 times). The brains were placed in 70% ethanol followed by paraffin embedding. For paraffin sections, brains were sagittally sectioned at 5 μm thickness. Prior to staining, sections were deparaffinized. Antigen retrieval was performed by heating the slides to boiling temperature in 10 mM sodium citrate solution (pH 6) in a microwave, followed by heating for 10 minutes. The sections were rinsed 3 times for 5 minutes each with PBS. They were then incubated in a blocking solution containing 5% donkey serum (DS) in PBS-Tx (PBS with 0.2% Triton X-100) for 60 minutes at room temperature. After blocking, sections were incubated overnight at 4C with the primary antibody IBA1 (Genetex GTX100042, 1:250) and NeuN (Sigma, MAB377, 1:500). Afterward, the sections were rinsed 3 times for 5 minutes with PBS-Tx. Next, they were incubated with a fluorophore-conjugated secondary antibodies (Invitrogen, A21206 or A31570) for 1 hour at room temperature. Following secondary antibody incubation, the sections were rinsed 3 times for 5 minutes with PBS-Tx, and then once for 5 minutes with PBS. Histology was quantified using either the percentage of Iba1+ positive signal or blinded scoring (on the scale of 1–5).
The open field instrument (San Diego Instruments) was used to measure spontaneous locomotor activity. Mice were placed in open field chambers and allowed to acclimate for 5 min before movement tracking for 20min. Spontaneous locomotor activity was measured based on beam breaks and recorded by the instrument. Age of measurements is +/− 5 days for practical purposes without any age bias between groups.

O=Cc1ccccc1C(=O)N1CCCC[C@H]1COc1cccc(O)c1C=O [HypoxyStat]
Hb occupancy (Hb; 200 mg/kg PO 3 times per week): 29.3% | Hb occupancy (Hb; 600 mg/kg PO 3 times per week): 41.4% | classical safety parameters (body weight, organ weights, complete blood count, clinical chemistries) [1]: not adversely affected | concentration within red blood cells ([2]; 20, 60, 200 and 600 mg/kg oral gavage three times per week for 12 days): dose-dependent increase | Cmax ([2]; C57BL/6, in vivo, oral, 10 mg/kg, Figure 2A, mouse): 1590 nM | half-life ([2]; mouse, in vivo, 10 mg/kg oral gavage, C57BL/6 mice, read-out: effective half-life (Mouse PO half-life) (converted)): 5.04 days | blood plasma ratio at 3 days ([2]; mouse, whole blood and plasma, 10 mg/kg oral gavage, C57BL/6 mice, 3 days post dosing): 396 | lifespan increase of Ndufs4 KO mice (Ndufs4 KO mouse; 400 mg/kg daily oral gavage from P30 (1 week at 200 mg/kg)): 3–4 × | tolerability of chronic dosing in control (WT or heterozygous) mice (Ndufs4 KO mouse; 600 mg/kg every other day or 400 mg/kg daily, all control mice survived): well tolerated | lifespan increase of Ndufs4 KO mice (Ndufs4 KO mouse; 600 mg/kg every other day oral gavage from P30): 1.5–2 × | body temperature of Ndufs4 KO mice (Ndufs4 KO mouse; HypoxyStat from P30): restored body temperature to normal levels | motor coordination (rotarod) and spontaneous activity (open field) of KO mice (Ndufs4 KO mouse; HypoxyStat from P30): significantly improved motor coordination and spontaneous activity | body weight of drug-treated KO mice (Ndufs4 KO mouse; HypoxyStat from P30, comparable with inhaled hypoxia): increased body weight | lesion severity (Iba1 staining for microglial activation) at P50 (Ndufs4 KO mouse; KO mice treated from P30, p < 0.05 vs vehicle): significant reduction in lesion severity
